Assay results taken from patent publication US20210283163A1, “COMPOSITIONS AND METHODS FOR THE TREATMENT OF ACUTE AND CHRONIC PRURITIS” (Duke University, priority 2018, published 2021).

Key:
[1] = target: hTRPA1 (Homo sapiens, UniProt O75762); test: Outside-out patch recordings, single channel activity, hTRPA1-expressing HEK293 cells; format: cell-based
Experimental: Inside-Out and Outside-Out Patch Clamp Recordings on HEK293 Cells. For inside-out recordings in TRPA1-expressing HEK293 cells, pipette resistance was 8-10 MΩ and, the internal solution contains: 126 mM K-gluconate, 10 mM NaCl, 1 mM MgCl2, 10 mM EGTA, 10 mM HEPES, and 2 Na-ATP (adjusted to pH 7.3 with KOH, osmolarity to 295-300 mOsm). The recordings were performed at room temperature in a bath solution (intracellular side) of 140 mM NaCl, 10 mM EGTA, 5 mM KCl, 2 mM CaCl2, 1 mM MgCl2, 10 mM HEPES, 10 mM glucose, adjusted to pH 7.4 with NaOH and osmolarity to 300-310 mOsm (Park et al., Neuron 2014, 82, 47-54). For comparison, outside-out recordings were also performed in TRPA1-expressing HEK293 cells in an extracellular solution of 140 mM NaCl, 5 mM KCl, 2 mM MgCl2, 10 mM HEPES, and 10 mM glucose (adjusted to pH 7.4 with NaOH and osmolarity to 300-310 mOsm). The internal solution contains 140 mM CsCl, 10 mM EGTA, 10 mM HEPES, and mM 2 Mg-ATP, adjusted to pH 7.3 with CsOH. Currents were low-pass filtered at 2 kHz and digitized at a sampling rate of 10 kHz with Digidata-1440A (Axon Instruments). The pClamp10 (Axon Instruments) software was used during experiments and data analysis. Opening and closing transitions of single channels were detected by using 50% of the threshold criterion. All events were carefully checked before the analysis. When superimposed openings were observed, the number of channels in the patch was estimated from the maximal number of superimposed openings. The single-channel open probability (Po) was determined using the following equation: Po=T′/T, where T′ is the total open time for a patch over time T.

[2] = system: mice; test: Pain tests for mechanical and thermal sensitivity after intraplantar injection; format: in vivo, mouse; details: miR-711 1 mM, AITC 10 mM, 10 μL
Experimental: Pain Tests for Mechanical and Thermal Sensitivity. Mice were habituated to the environment for at least 2 days before the testing. All the behaviors were tested blindly. […] For testing mechanical sensitivity, we confined mice in boxes (14×18×12 cm) placed on an elevated metal mesh floor and stimulated their hind paws with a series of von Frey hairs with logarithmically increasing stiffness (0.16-2.00 g, Stoelting), presented perpendicularly to the central plantar surface. We determined the 50% paw withdrawal threshold by Dixon's up-down method (Dixon, Annu. Rev. Pharmacol. Toxicol. 1980, 20, 441-462). Thermal sensitivity was tested using Hargreaves radiant heat apparatus (Hargreaves et al., Pain 1988, 32, 77-88) (IITC Life Science). For the radiant heat test, the basal paw withdrawal latency was adjusted to 10-15 s, with a cutoff of 25 s to prevent tissue damage.

[3] = target: T1, mmu-TRPA1 (Mus musculus, UniProt Q8BLA8); test: Whole-cell patch clamp in CHO cells transfected with wild-type mmu-Trpa1 cDNA; format: cell-based; details: miR-711 10 μM, AITC 50 μM
T1 construct: HA; expressed in transfected cells; host or cells: CHO cells (ATCC CRL-9096), transient transfection with Lipofectamine 2000
Experimental: (§1) Constructs. The cDNAs of mouse pcDNA3.1-Trpa1, pcDNA3.1-Trpv1, pcDNA3.1-Trpv2, pcDNA3.1-Trpv3, and pcDNA3.1-Trpv4 were kindly provided Dr. Sun Work Hwang from Korea University. Mouse Trpa1 cDNA was subcloned into pCGN-HA backbone (Addgene) using In-Fusion HD Cloning Kit (Clontech Laboratories, CA). Q5 Site-Directed Mutagenesis Kit was used to generate mTrpa1 mutant (M1-M13) based on pCGN-mTrpa1.
Cell Culture and Transfection. CD4^+ Myla cell line was cultured in RPMI 1640 media (GIBCO), supplemented with 2 mM Glutamine (GIBCO), 100 U/mL IL-2 (Sigma), 100 U/mL IL-4 (Sigma), and 10% human AB serum (Sigma). HuT 102 cell line was cultured in RPMI 1640 supplemented with pyruvate, HEPES, and 10% (v/v) fetal bovine serum (HyClone). HEK293-hTRPA1 stable cell line was cultured in MEM (GIBCO) containing 2 mM Glutamine, 4 μg/mL Blasticidin, 10% FBS (v/v). B16 and CHO cells were cultured in high glucose (4.5 g/L) Dulbecco's Modified Eagle's Medium (GIBCO) containing 10% (v/v) fetal bovine serum (GIBCO). Culture media were supplemented with 50 units/mL of penicillin and 50 μg/mL streptomycin, and cultures were maintained with 5% CO2 in 37° C. incubator. Transfection (2 μg cDNA) was performed with Lipofectamine™ 2000 Reagent (Invitrogen) at 80% confluency and the transfected cells were cultured in the same media for 48 hr before electrophysiological and biochemical studies. […]

[4] = system: mTRPA1 mutants (M1-M13); test: Whole-cell patch clamp in CHO cells transfected with mutant mTrpa1 cDNAs (M1-M13); format: cell-based, mouse; details: for effect of mutations on induced currents: M2, M3, M4, M5, and M10; for induced currents in mutants: mutants M1, M6, M7, M8, M9, and M12, AITC 50 μM, miR-711 10 μM
Experimental: as §1
Cell Culture and Transfection. CD4^+ Myla cell line was cultured in RPMI 1640 media (GIBCO), supplemented with 2 mM Glutamine (GIBCO), 100 U/mL IL-2 (Sigma), 100 U/mL IL-4 (Sigma), and 10% human AB serum (Sigma). HuT 102 cell line was cultured in RPMI 1640 supplemented with pyruvate, HEPES, and 10% (v/v) fetal bovine serum (HyClone). HEK293-hTRPA1 stable cell line was cultured in MEM (GIBCO) containing 2 mM Glutamine, 4 μg/mL Blasticidin, 10% FBS (v/v). B16 and CHO cells were cultured in high glucose (4.5 g/L) Dulbecco's Modified Eagle's Medium (GIBCO) containing 10% (v/v) fetal bovine serum (GIBCO). Culture media were supplemented with 50 units/mL of penicillin and 50 μg/mL streptomycin, and cultures were maintained with 5% CO2 in 37° C. incubator. Transfection (2 μg cDNA) was performed with Lipofectamine™ 2000 Reagent (Invitrogen) at 80% confluency and the transfected cells were cultured in the same media for 48 hr before electrophysiological and biochemical studies.
Whole-Cell Patch Clamp Recordings in HEK293 Cells, CHO Cells, and DRG Neurons. Whole-cell patch clamp recordings were performed at room temperature using an Axopatch-200B amplifier (Axon Instruments) with a Digidata 1440B (Axon Instruments). In this study, we only examined small-diameter mouse DRG neurons (<25 μM) and small-diameter human DRG neurons (<55 μM). The patch pipettes were pulled from borosilicate capillaries (World Precision Instruments) using a P-97 Flaming/Brown micropipette puller (Sutter Instrument). Pipette resistance was 4-6 MΩ for whole-cell and outside-out recording. For inward current recordings in mouse and human DRG neurons, HEK293 cells, and CHO cells, the internal solution contains (in mM): 140 CsCl, 10 EGTA, 10 HEPES, and 2 Mg-ATP, adjusted to pH 7.3 with CsOH. Whole cell recordings were performed in an extracellular solution that contains (in mM): 140 NaCl, 5 KCl, 2 MgCl2, 10 HEPES, and 10 glucose, adjusted to pH 7.4 with NaOH and osmolarity to 300-310 mOsm. […] Action potential recordings were performed in small-diameter DRG neurons, with the following solutions: i) internal pipette solution contains: 126 mM K-gluconate, 10 mM NaCl, 1 mM MgCl2, 10 mM EGTA, 10 mM HEPES and 2 mM Na-ATP, adjusted to pH 7.4 with KOH and osmolarity to 295-300 mOsm), and ii) extracellular solution contains: 140 mM NaCl, 5 mM KCl, 2 mM MgCl2, 2 mM CaCl2, 10 mM HEPES, 10 mM glucose, adjusted to pH 7.4 with KOH.

Chain of hTRPA1 (O75762 whole entry): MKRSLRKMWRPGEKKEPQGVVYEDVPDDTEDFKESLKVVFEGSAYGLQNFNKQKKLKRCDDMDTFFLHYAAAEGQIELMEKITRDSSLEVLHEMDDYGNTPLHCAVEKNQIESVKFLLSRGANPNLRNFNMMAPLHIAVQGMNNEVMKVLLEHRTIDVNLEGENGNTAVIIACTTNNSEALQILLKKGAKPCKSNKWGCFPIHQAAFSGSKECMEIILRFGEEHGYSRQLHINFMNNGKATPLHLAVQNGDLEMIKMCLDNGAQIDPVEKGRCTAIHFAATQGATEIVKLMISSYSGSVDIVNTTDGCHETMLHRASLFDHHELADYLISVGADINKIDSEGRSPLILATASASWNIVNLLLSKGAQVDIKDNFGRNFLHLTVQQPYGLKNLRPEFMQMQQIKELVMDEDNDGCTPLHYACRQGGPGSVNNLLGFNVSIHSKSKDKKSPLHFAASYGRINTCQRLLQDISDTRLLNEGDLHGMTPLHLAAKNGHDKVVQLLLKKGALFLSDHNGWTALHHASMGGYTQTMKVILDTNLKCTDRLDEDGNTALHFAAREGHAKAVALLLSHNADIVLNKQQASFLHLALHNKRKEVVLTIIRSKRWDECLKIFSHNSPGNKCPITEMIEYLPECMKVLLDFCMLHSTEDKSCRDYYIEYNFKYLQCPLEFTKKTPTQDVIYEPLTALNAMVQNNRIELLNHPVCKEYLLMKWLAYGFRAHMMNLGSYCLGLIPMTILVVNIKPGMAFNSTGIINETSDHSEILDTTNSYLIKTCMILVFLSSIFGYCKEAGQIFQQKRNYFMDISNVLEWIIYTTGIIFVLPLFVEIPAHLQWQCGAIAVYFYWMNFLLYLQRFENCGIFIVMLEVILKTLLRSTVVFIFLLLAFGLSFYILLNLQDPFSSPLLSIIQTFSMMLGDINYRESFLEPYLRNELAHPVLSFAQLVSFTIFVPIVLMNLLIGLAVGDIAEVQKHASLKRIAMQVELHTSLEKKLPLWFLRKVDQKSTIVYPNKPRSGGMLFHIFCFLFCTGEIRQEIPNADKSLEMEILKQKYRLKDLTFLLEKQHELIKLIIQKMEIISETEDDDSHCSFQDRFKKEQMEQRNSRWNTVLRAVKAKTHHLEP
T1 sequence (Q8BLA8 whole entry): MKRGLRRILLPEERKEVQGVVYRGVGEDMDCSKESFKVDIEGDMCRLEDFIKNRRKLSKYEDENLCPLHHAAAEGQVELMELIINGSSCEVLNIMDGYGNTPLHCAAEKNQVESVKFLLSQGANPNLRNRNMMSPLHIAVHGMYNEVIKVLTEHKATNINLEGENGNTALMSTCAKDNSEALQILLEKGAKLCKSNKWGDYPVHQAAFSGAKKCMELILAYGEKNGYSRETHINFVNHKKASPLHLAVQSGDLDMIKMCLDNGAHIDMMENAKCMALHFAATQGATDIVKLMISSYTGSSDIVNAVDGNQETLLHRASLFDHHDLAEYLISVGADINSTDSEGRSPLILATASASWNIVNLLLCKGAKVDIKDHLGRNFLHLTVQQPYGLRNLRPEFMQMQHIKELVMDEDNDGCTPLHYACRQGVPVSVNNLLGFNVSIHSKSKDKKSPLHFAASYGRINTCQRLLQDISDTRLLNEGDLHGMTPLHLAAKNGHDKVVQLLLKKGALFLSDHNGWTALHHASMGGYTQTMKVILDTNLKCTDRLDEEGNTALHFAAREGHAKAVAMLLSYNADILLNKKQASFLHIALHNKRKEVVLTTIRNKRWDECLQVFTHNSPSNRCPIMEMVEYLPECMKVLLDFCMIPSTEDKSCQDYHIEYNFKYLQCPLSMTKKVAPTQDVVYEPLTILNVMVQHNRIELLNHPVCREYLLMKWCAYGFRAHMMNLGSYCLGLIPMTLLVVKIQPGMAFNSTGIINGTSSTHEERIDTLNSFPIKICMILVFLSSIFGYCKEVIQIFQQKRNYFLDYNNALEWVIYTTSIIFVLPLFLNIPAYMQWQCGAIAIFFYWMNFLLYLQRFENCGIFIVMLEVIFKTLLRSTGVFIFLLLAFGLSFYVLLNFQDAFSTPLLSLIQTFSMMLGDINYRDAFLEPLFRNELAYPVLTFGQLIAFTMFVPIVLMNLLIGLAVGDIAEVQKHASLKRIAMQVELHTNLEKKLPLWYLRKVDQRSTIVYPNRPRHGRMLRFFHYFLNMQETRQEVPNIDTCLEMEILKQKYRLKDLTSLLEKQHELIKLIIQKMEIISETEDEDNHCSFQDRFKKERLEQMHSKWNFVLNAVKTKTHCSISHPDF

Row | Compound | block of miR-711-induced single channel activity ([1]; outside-out patch) | heat hyperalgesia [2] | mechanical allodynia [2] | single-channel opening events, extracellular surface ([1]; bath application, miR-711 10 μM, AITC 50 μM, held at −60 mV) | duration of single channel opening (average open time) ([1]; miR-711 10 μM versus AITC 50 μM) | single channel conductance ([1]; mmu-miR-711 versus AITC) | inward currents [3] | effect of mutations on induced currents [4] | induced currents in mutants [4] | AITC-induced currents in mutants ([4]; M2, M3, M4, M5, M10, M11, and M13)
1 | CCC(=N\O)/C(C)=C/c1ccc(F)cc1 [A967079, (1E,3E)-1-(4-Fluorophenyl)-2-methyl-1-pentene-3-one oxime] | completely blocked |  |  |  |  |  |  |  |  | 
2 | miR-711: mmu-miR-711: gggacccggggagagauguaag (SEQ ID NO: 5) (GGGACCCGGGGAGAGAUGUAAG; chemistry not given here) |  | failed to induce | failed to induce | elicited single-channel opening events | significantly shorter | not significant | induce inward currents | no effects | substantial reductions | 
3 | C=CCN=C=S [AITC] |  | elicited marked hyperalgesia and allodynia | elicited marked hyperalgesia and allodynia |  |  |  | induce inward currents | no effects | substantial reductions | unaltered
